Assay [1] has as its system TNF-α secretion by LPS-treated THP1 cells. The assay can be described thus: Lipopolysaccharide-activated THP1 cell TNF production assay. Particulars: Homo sapiens, THP-1, 3 hours, read-out: IC50 in the THP-1 cellular TNF production assay. In kind it is cell-based. The procedure:
Lipopolysaccharide-Activated THP1 Cell TNF Production Assay
THP1 cells were resuspended in fresh THP1 media (RPMI 1640, 10% heat-inactivated FBS, 1×PGS, 1×NEAA, plus 30 μM βME) at a concentration of 1.5×10^6 cells per mL. One hundred microliters of cells per well were plated in a polystyrene 96-well tissue culture plate. 1.5 micrograms per mL of bacterial LPS was prepared in THP1 media and transferred to the first 11 columns of a 96-well polypropylene plate. Column 12 contained only THP1 media for the LO control. Compounds were dissolved in 100% DMSO and serially diluted 3 fold in a polypropylene 96-well microtiter plate (drug plate). Columns 6 and 12 were reserved as controls (HI controls and LO controls respectively) and contained only DMSO. 10 μL of LPS followed by one microliter of inhibitor compound from the drug plate was transferred to the cell plate. The treated cells were induced to synthesize and secrete TNF-α in a 37° C. humidified incubator with 5% CO2 for 3 hours. Fifty microliters of conditioned media was transferred to a 96-well MULTI-ARRAY™ 96-well small spot plate—custom coated with MAB610 containing 100 μL of 2× Read Buffer P supplemented with 0.34 nM AF210NA polyclonal Ab labeled with ruthenium (MSD-Sulfo-TAG™—NHS ester). After an overnight incubation at room temperature with shaking, the reaction was read on the Sector Imager™ 6000. […] The amount of secreted TNF-α in the presence of AMG compounds compared with that in the presence of DMSO vehicle alone (HI control) was calculated using the formula: % control (POC)=(cpd−average LO)/(average HI−averageLO)*100. Data (consisting of POC and inhibitor concentration in μM) was fitted to a 4-parameter equation (y=A+((B−A)/(1+((x/C)^D))), where A is the minimum y (POC) value, B is the maximum y (POC), C is the x (cpd concentration) at the point of inflection and D is the slope factor) using a Levenburg-Marquardt non-linear regression algorithm.

In a further assay the target is recombinant human p38α (Homo sapiens, UniProt Q16539). Description: Purified and activated recombinant human p38α HTRF assay. Format: biochemical. Particulars: 1 nM p38α, 50 μM ATP, 100 nM GST-ATF2-Avitag, read-out: p3a IC550. On the procedure:
Purified and Activated Recombinant Human p38α Assay
• Kinase Reaction Buffer: Kinase reaction buffer for p38α HTRF assays consists of 50 mM Tris-pH 7.5, 5 mM MgCl2, 0.1 mg/mL BSA, 100 μM Na3VO4 and 0.5 mM DTT. • HTRF Detection Buffer: HTRF detection buffer contains 100 mM HEPES-pH 7.5, 100 mM NaCl, 0.1% BSA, 0.05% Tween-20, and 10 mM EDTA. • Serial Dilution of Compounds: Compounds were dissolved in 100% DMSO and serially diluted (3 fold, 10 point) in a polypropylene 96-well microtiter plate (drug plate). The final starting concentration of compounds in the p38a enzymatic assays was 1 μM. Columns 6 and 12 (HI controls and LO controls respectively) in the drug plate were reserved as controls and contained only DMSO. • Kinase Reaction: The p38α kinase reactions were carried out in a polypropylene 96-well black round bottom assay plate in total volume of 30 μL kinase reaction buffer. Appropriate concentration of purified and activated enzyme (recombinant human) was mixed with indicated concentration of ATP and 100 nM GST-ATF2-Avitag, in the presence or absence (HI control) of Compound. See table below for actual concentrations. In the absence of substrate, the background was measured as LO control. The reaction was allowed to incubate for 1 hour at RT. • Assay Reagent Concentrations: The final reagent concentrations were 1 nM p38α and 50 μM ATP. […] After 60 minutes incubation at room temperature, the assay plate was read in a Discovery Plate Reader. The wells were excited with coherent 320 nm light and the ratio of delayed ([…] post excitation) emissions at […] (native europium fluorescence) and 665 nm (europium fluorescence transferred to allophycocyanin—an index of substrate phosphorylation) was determined (Park et al, 1999). • Data Analysis: The proportion of substrate phosphorylated in the kinase reaction in the presence of compound compared with that phosphorylated in the presence of DMSO vehicle alone (HI control) was calculated using the formula: % control (POC)=(compound−average LO)/(average HI−average LO)*100. Data (consisting of POC and inhibitor concentration in μM) was fitted to a 4-parameter equation (y=A+((B−A)/(1+((x/C)AD))), where A is the minimum y (POC) value, B is the maximum y (POC), C is the x (compound concentration) at the point of inflection and D is the slope factor, using a Levenburg-Marquardt non-linear regression algorithm.
The inhibition constant (Ki) of the inhibitor was estimated from the IC50 (compound concentration at the point of inflection C) using the Cheng-Prussof equation: Ki=IC50/(1+S/Km), where S is the ATP substrate concentration, and Km is the Michaelis constant for ATP as determined experimentally. All results were expressed as the mean± the standard error of the mean. Data acquisition and non-linear regression algorithms were performed using Activity Base v5.2 and XL-fit software v4.1 respectively. All data was archived using Activity Base v5.2 software.

The test system of assay [2] is secreted IL-8 by whole blood activated with TNF-α. Description: Inhibition of TNF-α induced IL-8 in 50% human whole blood. Format: cell-based. On the procedure: Inhibition of TNF-α Induced IL-8 in 50% Human Whole Blood
Test compounds were evaluated in vitro for the ability to inhibit the production of secreted IL-8 by whole blood activated with TNF-α. Fresh human whole blood was obtained from healthy, non-medicated volunteers in sodium heparin tubes.
Compound Dilution—Assay Procedure
Test compounds are serially diluted 1:3 in DMSO and then diluted 1:250 into R10 (RPMI 1640, 10% human serum AB, 1× pen/strep/glutamine) to the 4× working concentration to be used in the assay. 100 ul heparinized whole blood is plated into wells of 96 well flat bottom plates. 50 ul of either 4× compound or DMSO control (Final DMSO concentration is 0.1%) are added to the appropriate wells. Plates are incubated for 1 hour at 37 degrees Celsius. 50 ul of 4× TNF-α (4 nM TNF-α, for a final concentration of 1 nM) or control (media alone) is added to the appropriate wells (Total volume=200 ul). Plates are incubated overnight (16-18 hours). 100 ul of supernatant is collected and stored in 96-well round bottom polypropylene plates at −80 degrees Celsius or assayed immediately for IL-8.
Cytokines are measured on antibody (Ab) sandwich ECL based 96-well detection plates. 20 ul of supernatant are added to plate and plate is sealed and shaken at RT for 1 hour. 130 ul of detection Ab cocktail is added and plates are sealed and shaken for 1 hour in the dark at RT. Plates are read on MSD Sector HTS instrument. Data are analyzed and IC50 values generated using Activity Base and Xl-fit programs.

The mark [3] stands for this setting: 50% human whole blood, TNF-α (1 nM final) induced IL-8, 16-18 hours, read-out: WB TNF/IL8 IC50.
[4] abbreviates: Homo sapiens, read-out: IC50, TNF-α induced IL-8 in 50% human whole blood.

Molecules are shown by their SMILES. pIC50: −log10 of the molar value. Like-named read-outs stand apart in the source and are kept apart here.

This note sets out measurements from patent publication US8435987B2, “Pyrazolo-pyridinone and pyrazolo-pyrazinone compounds as P38 modulators and methods of use thereof” (Amgen Inc., priority 2007, dated 2013).

recombinant human p38α, sequence (Q16539 whole entry): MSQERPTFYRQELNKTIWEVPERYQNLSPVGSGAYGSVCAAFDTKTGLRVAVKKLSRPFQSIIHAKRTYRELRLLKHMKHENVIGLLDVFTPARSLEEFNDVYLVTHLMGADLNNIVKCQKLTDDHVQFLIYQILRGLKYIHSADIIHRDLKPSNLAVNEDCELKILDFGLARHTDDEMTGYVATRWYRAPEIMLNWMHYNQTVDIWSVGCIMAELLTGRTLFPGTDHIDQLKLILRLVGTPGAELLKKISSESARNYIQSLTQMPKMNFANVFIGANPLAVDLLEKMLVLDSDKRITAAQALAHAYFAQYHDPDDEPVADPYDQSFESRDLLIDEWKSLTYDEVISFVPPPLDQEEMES

`CCn1c(=O)c(-c2c(C)ccc3c(NC4CC4)noc23)cc2cnn(-c3ccccc3F)c21` [Example 7, 5-(3-(cyclopropylamino)-6-methyl-1,2-benzisoxazol-7-yl)-7-ethyl-1-(2-fluorophenyl)-1,7-dihydro-6H-pyrazolo[3,4-b]pyridin-6-one]: the pIC50 in assay [1] is no less than 7.00; at recombinant human p38α it was 8.70; in assay [2] (setting [3]), 8.89; in assay [2] (setting [4]), no less than 7.00.

`Cc1ccc2c(NC3CC3)noc2c1-c1nc2cnn(-c3ccc(F)cc3F)c2n(C)c1=O` [Example 10, 5-(3-(cyclopropylamino)-6-methyl-1,2-benzisoxazol-7-yl)-1-(2,4-difluorophenyl)-7-methyl-1,7-dihydro-6H-pyrazolo[3,4-b]pyrazin-6-one]: the pIC50 in assay [2] (setting [3]) is 8.05.

On to `CNc1noc2c(-c3nc4cnn(-c5ccc(F)cc5F)c4n(C)c3=O)c(C)ccc12` [Example 2, 1-(2,4-difluorophenyl)-7-methyl-5-(6-methyl-3-(methylamino)benzo[d]isoxazol-7-yl)-1H-pyrazolo[4,3-b]pyrazin-6(7H)-one], for which the figures for the pIC50 (in assay [1]; on recombinant human p38α; in assay [2] (setting [4])) were no less than 7.00, 7.55 and no less than 7.00, respectively.

For `Cc1ccc2c(NC3CC3)noc2c1-c1cc2cnn(-c3cc(F)ccc3F)c2n(C)c1=O` [Example 6, 5-(3-(cyclopropylamino)-6-methyl-1,2-benzisoxazol-7-yl)-1-(2,5-difluorophenyl)-7-methyl-1,7-dihydro-6H-pyrazolo[3,4-b]pyridin-6-one], the pIC50 is no less than 7.00 in assay [1], 8.05 at recombinant human p38α, 8.80 in assay [2] (setting [3]) and no less than 7.00 in assay [2] (setting [4]).

As for `Cc1ccc2c(NC3CC3)noc2c1-c1nc2cnn(-c3c(F)cccc3F)c2n(C)c1=O` [Example 9, 5-(3-(cyclopropylamino)-6-methyl-1,2-benzisoxazol-7-yl)-1-(2,6-difluorophenyl)-7-methyl-1,7-dihydro-6H-pyrazolo[3,4-b]pyrazin-6-one], the pIC50 in assay [2] (setting [3]) was 8.10.

`Cc1ccc2c(NC3CC3)noc2c1-c1cc2cnn(-c3ccc(F)cc3F)c2n(C)c1=O` [Example 8, 5-(3-(cyclopropylamino)-6-methyl-1,2-benzisoxazol-7-yl)-1-(2,4-difluorophenyl)-7-methyl-1,7-dihydro-6H-pyrazolo[3,4-b]pyridin-6-one]: the pIC50 was no less than 7.00 in assay [1], 8.36 at recombinant human p38α, 8.74 in assay [2] (setting [3]) and no less than 7.00 in assay [2] (setting [4]).
